SMILES strings stand for the structures.

The experiment is described as follows: Inhibition of mouse KLK5 assessed as inhibition constant using Boc-VPR-AMC as fluorogenic substrate incubated for 30 mins by fluorescence plate reader assay.

`CCCCCCCCCCCCCCCC(=O)NCCCC[C@H](NC(=O)[C@H](CCC(=O)O)NC(=O)[C@H](Cc1ccc(O)cc1)NC(=O)[C@H](CCC(=O)O)NC(=O)COCCOCCNC(=O)c1ccc(-c2c3ccc(=O)cc-3oc3cc(O)ccc23)c(C(=O)O)c1)C(=O)N[C@@H](CCC(=O)O)C(=O)N[C@@H](Cc1ccc(O)cc1)C(=O)N[C@@H](CCC(=O)O)C(=O)NCCOCCOCC(=O)NCCCC[C@H](NC(=O)CNC(=O)[C@@H]1CSCC(=O)CSC[C@H](NC(=O)CN)C(=O)N[C@@H]([C@@H](C)O)C(=O)N[C@@H](CCCNC(=N)N)C(=O)N[C@@H](CCC(N)=O)C(=O)N[C@@H](Cc2ccc(O)cc2)C(=O)N2CCC[C@H]2C(=O)N1)C(=O)NCC(N)=O`: the Ki (usually the dissociation constant of the complex between target and ligand, obtained from inhibition or displacement) was determined as 1.4 nM.
